Reference: patent publication US20040063662A1, “Selenophene anti-tumor agents” (priority 1996, published 2004)
Like-named read-outs stand apart in the source and are kept apart here.

Key:
[1] = system: panel of sixty different human tumor cell lines; assay: NCI human tumor cell panel: whole panel (mean graph summary); conditions: for CC50: Homo sapiens
RXF-393 = assay: NCI human tumor cell panel: RXF-393 (Renal Cancer); assay type: cell-based; conditions: for GI50: RXF-393, read-out: Log10 GI50 (converted); for IC (TGI): RXF-393, read-out: Log10 TGI (converted)
HCC-2998 = assay: NCI human tumor cell panel: HCC-2998 (Colon Cancer); assay type: cell-based; conditions: for GI50: HCC-2998, read-out: Log10 GI50 (converted); for IC (TGI): HCC-2998, read-out: Log10 TGI (converted)
SK-MEL-28 = assay: NCI human tumor cell panel: SK-MEL-28 (Melanoma); assay type: cell-based; conditions: for GI50: SK-MEL-28, read-out: Log10 GI50 (converted); for IC (TGI): SK-MEL-28, read-out: Log10 TGI (converted)
CAKI-1 = assay: NCI human tumor cell panel: CAKI-1 (Renal Cancer); assay type: cell-based; conditions: for GI50: CAKI-1, read-out: Log10 GI50 (converted); for IC (TGI): CAKI-1, read-out: Log10 TGI (converted)
SK-MEL-5 = assay: NCI human tumor cell panel: SK-MEL-5 (Melanoma); assay type: cell-based; conditions: for IC (TGI): SK-MEL-5, read-out: Log10 TGI (converted)
NCI-H322M = assay: cells; assay type: cell-based; conditions: Homo sapiens; for GI50: read-out: Log10 GI50 (converted); for IC (TGI): read-out: Log10 TGI (converted)
SF-268 = assay: NCI human tumor cell panel: SF-268 (CNS Cancer); assay type: cell-based; conditions: for GI50: SF-268, read-out: Log10 GI50 (converted); for IC (TGI): SF-268, read-out: Log10 TGI (converted)
OVCAR-3 = assay: NCI human tumor cell panel: OVCAR-3 (Ovarian Cancer); assay type: cell-based; conditions: for GI50: OVCAR-3, read-out: Log10 GI50 (converted); for IC (TGI): OVCAR-3, read-out: Log10 TGI (converted)
MDA-MB-231/ATCC = assay: NCI human tumor cell panel: MDA-MB-231/ATCC (Breast Cancer); assay type: cell-based; conditions: for GI50: read-out: Log10 GI50 (converted)
RPMI-8226 = assay: NCI human tumor cell panel: RPMI-8226 (Leukemia); assay type: cell-based; conditions: for GI50: RPMI-8226, read-out: Log10 GI50 (converted); for IC (TGI): RPMI-8226, read-out: Log10 TGI
HL-60(TB) = assay: NCI human tumor cell panel: HL-60(TB) (Leukemia); assay type: cell-based; conditions: for GI50: read-out: Log10 GI50 (converted)
SF-539 = assay: NCI human tumor cell panel: SF-539 (CNS Cancer); assay type: cell-based; conditions: for GI50: SF-539, read-out: Log10 GI50 (converted); for IC (TGI): SF-539, read-out: Log10 TGI (converted)
U251 = assay: NCI human tumor cell panel: U251 (CNS Cancer); assay type: cell-based; conditions: for GI50: U-251, U251, read-out: Log10 GI50 (converted); for IC (TGI): U-251, U251, read-out: Log10 TGI (converted)
CCRF-CEM = assay: NCI human tumor cell panel: CCRF-CEM (Leukemia); assay type: cell-based; conditions: for GI50: read-out: Log10 GI50 (converted); for IC (TGI): read-out: Log10 TGI (converted)
MDA-N = assay: NCI human tumor cell panel: MDA-N (Breast Cancer); assay type: cell-based; conditions: for GI50: read-out: Log10 GI50 (converted); for IC (TGI): read-out: Log10 TGI (converted)
M14 = assay: NCI human tumor cell panel: M14 (Melanoma); assay type: cell-based; conditions: for GI50: M14, read-out: Log10 GI50 (converted); for IC (TGI): M14, read-out: Log10 TGI (converted)
MCF7 = assay: NCI human tumor cell panel: MCF7 (Breast Cancer); assay type: cell-based; conditions: for GI50: MCF7, read-out: Log10 GI50 (converted); for IC (TGI): MCF7, read-out: Log10 TGI (converted)
MDA-MB-435 = assay: NCI human tumor cell panel: MDA-MB-435 (Breast Cancer); assay type: cell-based; conditions: for GI50: MDA-MB-435, read-out: Log10 GI50 (converted); for IC (TGI): MDA-MB-435, read-out: Log10 TGI (converted)
NCI-H522 = assay: NCI human tumor cell panel: NCI-H522 (Non-Small Cell Lung Cancer); conditions: for GI50: NCI-H522, read-out: Log10 GI50 (converted); for IC (TGI): NCI-H522, read-out: Log10 TGI
COLO 205 = assay: NCI human tumor cell panel: COLO 205 (Colon Cancer); assay type: cell-based; conditions: for GI50: COLO 205, read-out: Log10 GI50 (converted); for IC (TGI): COLO 205, read-out: Log10 TGI (converted)
SNB-19 = assay: NCI human tumor cell panel: SNB-19 (CNS Cancer); assay type: cell-based; conditions: for GI50: SNB-19, read-out: Log10 GI50 (converted); for IC (TGI): SNB-19, read-out: Log10 TGI (converted)
SK-MEL-2 = assay: NCI human tumor cell panel: SK-MEL-2 (Melanoma); assay type: cell-based; conditions: for GI50: SK-MEL-2, read-out: Log10 GI50 (converted); for IC (TGI): SK-MEL-2, read-out: Log10 TGI (converted)
DU-145 = assay: NCI human tumor cell panel: DU-145 (Prostate Cancer); assay type: cell-based; conditions: for GI50: DU-145, read-out: Log10 GI50 (converted); for IC (TGI): DU-145, read-out: Log10 TGI (converted)
[2] = Selective cytotoxicity microculture assay, human renal carcinoma; conditions: human, SCI (selectively cytotoxicity index), GI50 (RPTEC)/GI50 (A-498)
NCI-H226 = assay: NCI human tumor cell panel: NCI-H226 (Non-Small Cell Lung Cancer); assay type: cell-based; conditions: for GI50: NCI-H226, read-out: Log10 GI50 (converted); for IC (TGI): NCI-H226, read-out: Log10 TGI (converted)
UO-31 = assay: NCI human tumor cell panel: UO-31 (Renal Cancer); assay type: cell-based; conditions: for GI50: UO-31, read-out: Log10 GI50 (converted); for IC (TGI): UO-31, read-out: Log10 TGI (converted)
T-47D = assay: NCI human tumor cell panel: T-47D (Breast Cancer); assay type: cell-based; conditions: T47D
SK-OV-3 = assay: NCI human tumor cell panel: SK-OV-3 (Ovarian Cancer); assay type: cell-based; conditions: SK-OV-3, read-out: Log10 GI50 (converted)
[3] = Homo sapiens, MDA-MB-231, MDA-MB-231/ATCC

## OCc1ccc(-c2ccc(-c3ccc(CO)[se]3)[se]2)[se]1 [compound 675247]
[1]; read-out: Log10 LC50, MG_MID, mean over the panel (converted)
  CC50: 45.7 µM
[1]; read-out: Log10 LC50, row head (cell line) not given (converted)
  CC50: > 100 µM
[1]; mean over the panel
  Log10 GI50, MG_MID: −5.65
[1]; whole panel
  Log10 TGI, Delta: 1.36
  Log10 TGI, Range: 2.33
RXF-393
  GI50: 1.58 µM
  IC (TGI): 3.72 µM
HCC-2998
  GI50: 0.851 µM
  IC (TGI): 3.24 µM
SK-MEL-28
  GI50: 5.13 µM
  IC (TGI): > 100 µM
CAKI-1
  GI50: 0.0741 µM
  IC (TGI): 0.468 µM
SK-MEL-5; SK-MEL-5, read-out: Log10 GI50 (converted)
  GI50: 1.45 µM
SK-MEL-5
  IC (TGI): 3.02 µM
NCI-H322M
  GI50: 11.2 µM
  IC (TGI): 24.5 µM
SF-268
  GI50: 1.74 µM
  IC (TGI): 4.37 µM
OVCAR-3
  GI50: 0.209 µM
  IC (TGI): 1.17 µM
MDA-MB-231/ATCC; [3]
  GI50: 5.01 µM
MDA-MB-231/ATCC; MDA-MB-231/ATCC
  Log10 GI50: −5.27
RPMI-8226
  GI50: 4.07 µM
  IC (TGI): > 100 µM
HL-60(TB)
  GI50: 4.07 µM
SF-539
  GI50: 17.4 µM
  IC (TGI): 40.7 µM
U251
  GI50: 0.468 µM
  IC (TGI): 12.3 µM
CCRF-CEM
  GI50: 3.39 µM
  IC (TGI): 10 µM
MDA-N
  GI50: 7.76 µM
  IC (TGI): 25.1 µM
M14
  GI50: 3.72 µM
  IC (TGI): 12.9 µM
MCF7
  GI50: 0.158 µM
  IC (TGI): 11.2 µM
MDA-MB-435
  GI50: 2.95 µM
  IC (TGI): 9.77 µM
NCI-H522
  GI50: 1.66 µM
  IC (TGI): 3.39 µM
COLO 205
  GI50: 1.95 µM
  IC (TGI): 5.13 µM
SNB-19
  GI50: 5.5 µM
  IC (TGI): 25.1 µM
SK-MEL-2
  GI50: 7.08 µM
  IC (TGI): 24 µM
DU-145
  GI50: 6.92 µM
  IC (TGI): 19.5 µM
[2]
  selectivity ratio: > 1000
NCI-H226
  GI50: 1.7 µM
  IC (TGI): 3.89 µM
UO-31
  GI50: 5.25 µM
  IC (TGI): 14.8 µM

## OCc1ccc(-c2ccc(-c3ccc(CO)s3)[se]2)s1 [compound 675343]
[1]; whole panel
  Log10 GI50, Delta: −5.36
  Log10 LC50, Delta: −4.06
  Log10 TGI, Delta: −4.41
  Log10 TGI, Range: 3.59
T-47D; read-out: Log10 GI50 (converted)
  GI50: 0.724 µM
T-47D; read-out: Log10 TGI (converted)
  IC (TGI): > 100 µM
SK-OV-3
  GI50: > 100 µM
RXF-393
  GI50: 20.9 µM
  IC (TGI): > 100 µM
HCC-2998
  GI50: < 0.01 µM
  IC (TGI): 3.39 µM
SK-MEL-28
  GI50: > 100 µM
  IC (TGI): > 100 µM
CAKI-1
  GI50: < 0.01 µM
  IC (TGI): < 0.01 µM
SK-MEL-5
  IC (TGI): > 100 µM
NCI-H322M
  GI50: 9.77 µM
  IC (TGI): > 100 µM
SF-268
  GI50: > 100 µM
  IC (TGI): > 100 µM
OVCAR-3
  GI50: 0.0257 µM
  IC (TGI): 32.4 µM
MDA-MB-231/ATCC; [3]
  GI50: > 100 µM
MDA-MB-231/ATCC; Homo sapiens, MDA-MB-231, MDA-MB-231/ATCC, read-out: Log10 TGI (converted)
  IC (TGI): > 100 µM
RPMI-8226
  GI50: > 100 µM
  IC (TGI): > 100 µM
HL-60(TB)
  GI50: 61.7 µM
HL-60(TB); read-out: Log10 TGI
  IC (TGI): > 100 µM
SF-539
  GI50: > 100 µM
  IC (TGI): > 100 µM
U251
  GI50: < 0.01 µM
  IC (TGI): > 100 µM
CCRF-CEM
  GI50: 22.4 µM
  IC (TGI): 60.3 µM
MDA-N
  GI50: > 100 µM
  IC (TGI): > 100 µM
M14
  GI50: > 100 µM
  IC (TGI): > 100 µM
MCF7
  GI50: < 0.01 µM
  IC (TGI): > 100 µM
MDA-MB-435
  GI50: > 100 µM
  IC (TGI): > 100 µM
NCI-H522
  GI50: ≥ 100 µM
  IC (TGI): > 100 µM
COLO 205
  GI50: < 0.01 µM
  IC (TGI): 1.05 µM
SNB-19
  GI50: > 100 µM
  IC (TGI): > 100 µM
SK-MEL-2
  GI50: > 100 µM
  IC (TGI): > 100 µM
DU-145
  GI50: > 100 µM
  IC (TGI): > 100 µM
NCI-H226
  GI50: < 0.01 µM
  IC (TGI): 0.0724 µM
UO-31
  GI50: > 100 µM
  IC (TGI): > 100 µM
